Paper PMC11123012, “Bioactive Alkaloids from the Mangrove-Derived Fungus Nigrospora oryzae SYSU-MS0024” (Marine Drugs, 2024)

Experiments:
AChE = AChE (Homo sapiens, UniProt P22303); experiment: biochemical; conditions: three replicates; read-out: AChE inhibitory activity IC50
Method: All compounds were examined for inhibitory activity against AChE using an optimized colorimetric method described previously. All tests were carried out in three replicates. Donepezil hydrochloride was taken as the positive control.

BV-2 cells = experiment: LPS-induced NO production in BV-2 cells; format: cell-based; conditions: mean ± SD of five replicates
Method: (§1) NO determination: all compounds were examined for the effect on the release of NO by BV-2 cell lines using the method described previously. All experiments were carried out in five replicates. Microglia Viability Assay: The effects of compounds 1–11 on the viability of BV2 microglia were carried out by MTT assay. BV2 microglia were first seeded at a density of 4000 cells per well for 12 or 24 h using a 96-well plate and then treated with compounds at the concentrations of 1– 100 μmol/L for another 36 h. After that, cells were incubated with MTT (0.5 mg/mL) in a 5% CO2 incubator at 37 °C. Three hours later, the medium was removed, and DMSO (150 μL) was added into each well to dissolve formazan crystals. The […] absorbances were measured at 570 nm using an ELISA microplate reader (Biotek, Winooski, VT, USA).

BV2 microglia = experiment: Microglia viability assay (MTT); format: cell-based; conditions: BV-2 cells, concentration of 100.0 μmol/L
Method: as §1

[1] = DPPH free radical scavenging assay; conditions: three replicates, read-out: antioxidant activity EC50
Method: An optimized colorimetric method described previously was used to evaluate the DPPH free radical scavenging activities of compounds 1–11 [37]. All tests were measured in three replicates. Vitamin C was taken as a positive control.

influenza A virus H1N1 = system: influenza A virus H1N1; set-up: method as in PMID 34052697; conditions: read-out: anti-influenza A virus H1N1 activity IC50; cited from earlier work

Chain of AChE (P22303 32-614): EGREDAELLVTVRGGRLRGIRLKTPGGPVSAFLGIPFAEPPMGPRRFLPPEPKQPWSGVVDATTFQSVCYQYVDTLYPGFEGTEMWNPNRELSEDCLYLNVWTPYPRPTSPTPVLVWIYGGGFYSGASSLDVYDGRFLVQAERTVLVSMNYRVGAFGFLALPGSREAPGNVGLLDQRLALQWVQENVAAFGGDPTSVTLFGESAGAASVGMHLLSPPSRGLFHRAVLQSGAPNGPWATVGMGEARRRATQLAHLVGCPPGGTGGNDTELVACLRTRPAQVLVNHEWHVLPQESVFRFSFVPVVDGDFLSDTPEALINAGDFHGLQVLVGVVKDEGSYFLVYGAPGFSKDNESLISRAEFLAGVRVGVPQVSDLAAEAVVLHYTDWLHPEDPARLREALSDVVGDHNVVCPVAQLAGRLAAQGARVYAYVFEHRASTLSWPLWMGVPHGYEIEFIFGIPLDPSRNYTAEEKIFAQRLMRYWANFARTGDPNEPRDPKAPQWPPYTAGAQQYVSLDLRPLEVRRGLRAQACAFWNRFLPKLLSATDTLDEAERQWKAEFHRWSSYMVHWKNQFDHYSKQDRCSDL

Question: What does the source list for `CC(O)C12CCC(=O)N1c1ccccc1CO2` (centres unmarked) [Compound 2, Nigrosporine B]?
Answer: IC50 (AChE): 104 µM; NO accumulation induced by LPS (BV-2 cells; compound at 20 μmol/L): 47.2 ± 0.2 ng/mL; NO accumulation induced by LPS (BV-2 cells; compound at 50 μmol/L): 41.7 ± 0.4 ng/mL; NO accumulation induced by LPS (BV-2 cells; compound at 100 μmol/L): 21.8 ± 0.1 ng/mL; cytotoxicity (BV-2 cell viability) (BV2 microglia): without cytotoxicity

Question: With `CC(=O)Nc1ccccc1O` [Compound 5, N-(2-hydroxyphenyl)-acetamide] as the compound, how does the EC50 [1] read?
Answer: Its EC50 is 167 µM.

Question: Which EC50 [1] does the source give for `O=C1O[C@H]([C@@H](O)CO)C(O)=C1O` [Vitamin C, reference compound] here?
Answer: Its EC50 is 146 µM.

Question: With `CC[C@@H](C)C1=C2NC(=O)[C@@](O)(C/C(=C\C=O)OC)C(=O)N2[C@H](C(C)C)C(=O)N1` [deg-pyrasplorine B] as the compound, how does the IC50 (influenza A virus H1N1) read?
Answer: The IC50 was 50 µM.
